Assay [1] deals with T1, A. suum QFR (complex II) (Ascaris suum, UniProt O44074+P92506+P92507).
T1 construct: from tissue; host or cells: adult Ascaris suum muscle, mitochondrial fraction
The assay is described as follows: SQR activity assay of A. suum complex II (QFR) in mitochondrial fraction, UQ2 consumption at 278 nm. It counts as biochemical. How it is done:
(§1) The CP buffer containing the prepared mitochondrial fraction was replaced with 50 mM Tris–HCl buffer, pH 7.4 containing 1 mM disodium malonate, 210 mM mannitol, 10 mM sucrose, and 1 mM EDTA. Final concentrations of the A. suum and porcine mitochondria (quantified protein) were adjusted to 10 and 20 mg/mL, respectively. Mitochondrial fractions were separated in 50 μL aliquots, frozen by liquid nitrogen and stored at 193 K until use. Prior to assay, the mitochondrial suspensions were thawed on ice and SQR was reactivated by incubation at 298 K for 30 min in equal volume of 50 mM potassium phosphate buffer pH 7.4, containing 337 μM disodium malonate. SQR assay buffer composed of 50 mM potassium phosphate buffer pH 7.4, 0.1% SML, 2 mM potassium cyanide, and 60 μM of 2,3-dimethoxy-5-methyl-6-geranyl-1,4-benzoquinone (UQ2) was pre-equilibrated at 298 K for 20 min. The assay mixture was constituted by adding 15 μg (A. suum) or 30 μg (porcine) of reactivated mitochondrial fraction to the assay buffer and incubated for 3 min for background activity measurements. The SQR activity was initiated by the addition of 10 mM disodium succinate, and recorded as rate of UQ2 consumption, monitored at 278 nm (ε278 = 15 mM^−1·cm^−1) for three minutes in 1 mL quartz cuvettes with a Shimadzu UV-3000 dual wavelength spectrophotometer (Shimazu, Kyoto, Japan). Inhibition of SQR activities were assayed in the presence of varying concentration of inhibitors (diluted in DMSO) and the IC50s calculated as the concentration of inhibitor that caused 50% decrease in SQR activity relative to control (DMSO).

For another assay, the target named is T2, porcine SQR (complex II) (Sus scrofa, UniProt A5GZW8+D0VWV4+Q007T0).
T2 construct: from tissue; host or cells: porcine heart muscle, mitochondrial fraction
T2 sequence (Q007T0 29-280): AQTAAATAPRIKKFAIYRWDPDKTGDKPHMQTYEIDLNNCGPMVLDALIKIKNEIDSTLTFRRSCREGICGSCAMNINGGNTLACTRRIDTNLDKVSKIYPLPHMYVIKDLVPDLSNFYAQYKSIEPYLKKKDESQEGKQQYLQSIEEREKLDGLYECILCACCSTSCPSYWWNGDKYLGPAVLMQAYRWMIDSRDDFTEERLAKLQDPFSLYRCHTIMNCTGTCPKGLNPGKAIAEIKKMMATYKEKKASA
T2 sequence (D0VWV4 30-169): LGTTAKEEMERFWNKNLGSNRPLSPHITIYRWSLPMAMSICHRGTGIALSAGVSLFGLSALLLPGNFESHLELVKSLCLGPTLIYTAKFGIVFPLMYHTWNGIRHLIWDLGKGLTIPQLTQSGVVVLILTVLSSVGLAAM
T2 sequence (A5GZW8 57-159 limits assumed): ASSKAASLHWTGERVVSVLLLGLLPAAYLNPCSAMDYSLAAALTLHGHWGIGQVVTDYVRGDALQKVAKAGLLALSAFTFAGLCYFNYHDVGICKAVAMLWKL
T2 sequence (Q0QF01 43-664 partner): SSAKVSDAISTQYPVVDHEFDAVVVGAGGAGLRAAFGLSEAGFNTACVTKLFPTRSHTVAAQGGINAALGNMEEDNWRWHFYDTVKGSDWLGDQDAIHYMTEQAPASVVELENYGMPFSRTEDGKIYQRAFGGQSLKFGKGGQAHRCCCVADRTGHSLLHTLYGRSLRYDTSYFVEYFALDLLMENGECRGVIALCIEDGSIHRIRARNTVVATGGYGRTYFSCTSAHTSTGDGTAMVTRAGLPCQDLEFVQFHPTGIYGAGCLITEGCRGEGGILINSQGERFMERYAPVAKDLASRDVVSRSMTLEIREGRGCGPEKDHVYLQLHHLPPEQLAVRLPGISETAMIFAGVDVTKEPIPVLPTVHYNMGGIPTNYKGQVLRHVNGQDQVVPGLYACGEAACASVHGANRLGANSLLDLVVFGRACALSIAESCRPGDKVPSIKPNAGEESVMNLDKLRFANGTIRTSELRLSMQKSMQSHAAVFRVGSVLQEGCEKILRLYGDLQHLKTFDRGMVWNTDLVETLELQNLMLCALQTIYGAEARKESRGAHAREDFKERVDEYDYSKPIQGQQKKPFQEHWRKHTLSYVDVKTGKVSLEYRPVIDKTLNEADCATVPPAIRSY
Kind of assay: SQR activity assay of porcine complex II in mitochondrial fraction, UQ2 consumption at 278 nm. It counts as biochemical. The procedure:
as §1

Another assay has as its system bovine SQR. Also on record: method as in PMID 3209470, PMID 12515859, PMID 19242645. The note with it: cited from earlier work.
Assay [2] deals with T1, A. suum QFR (complex II). The following applies: read-out: IC50 for A. suum QFR; cited from earlier work.
Where [3] appears, read: porcine complex II, SQR assay, 298 K, pH 7.4, read-out: IC50 (SQR).

The source of these data is publication PMC4519900 (International Journal of Molecular Sciences, 2015).

Each structure is given as a SMILES string. Read-outs that look alike come from different tables or passages of the source.

T1 sequence (Q33862 19-645): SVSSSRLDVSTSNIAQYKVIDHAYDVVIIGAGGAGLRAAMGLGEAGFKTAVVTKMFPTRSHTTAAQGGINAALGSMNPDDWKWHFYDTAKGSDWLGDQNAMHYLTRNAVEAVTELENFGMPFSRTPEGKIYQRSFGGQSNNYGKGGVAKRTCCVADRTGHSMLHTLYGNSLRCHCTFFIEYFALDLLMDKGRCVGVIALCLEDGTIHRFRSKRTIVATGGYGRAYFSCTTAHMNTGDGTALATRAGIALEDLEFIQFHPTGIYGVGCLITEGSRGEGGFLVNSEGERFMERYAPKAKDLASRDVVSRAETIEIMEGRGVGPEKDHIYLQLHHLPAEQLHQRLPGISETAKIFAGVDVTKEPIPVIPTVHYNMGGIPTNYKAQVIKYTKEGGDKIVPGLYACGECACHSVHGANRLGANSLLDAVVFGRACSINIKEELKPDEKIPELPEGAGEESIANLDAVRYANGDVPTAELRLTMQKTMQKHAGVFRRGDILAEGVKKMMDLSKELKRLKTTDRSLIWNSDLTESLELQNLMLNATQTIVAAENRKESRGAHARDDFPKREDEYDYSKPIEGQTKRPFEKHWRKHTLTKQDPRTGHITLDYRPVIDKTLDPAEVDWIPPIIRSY
T1 sequence (P92507 26-156): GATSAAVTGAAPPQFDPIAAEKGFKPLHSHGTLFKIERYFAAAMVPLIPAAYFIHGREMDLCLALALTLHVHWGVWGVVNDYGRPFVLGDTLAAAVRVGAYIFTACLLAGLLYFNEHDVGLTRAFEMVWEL
T1 sequence (P92506 32-188): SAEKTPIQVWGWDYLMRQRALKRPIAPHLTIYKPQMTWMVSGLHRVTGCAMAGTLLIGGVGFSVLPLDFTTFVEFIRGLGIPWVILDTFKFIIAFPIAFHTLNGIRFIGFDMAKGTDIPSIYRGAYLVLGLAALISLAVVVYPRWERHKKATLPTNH
T1 sequence (O44074 22-282): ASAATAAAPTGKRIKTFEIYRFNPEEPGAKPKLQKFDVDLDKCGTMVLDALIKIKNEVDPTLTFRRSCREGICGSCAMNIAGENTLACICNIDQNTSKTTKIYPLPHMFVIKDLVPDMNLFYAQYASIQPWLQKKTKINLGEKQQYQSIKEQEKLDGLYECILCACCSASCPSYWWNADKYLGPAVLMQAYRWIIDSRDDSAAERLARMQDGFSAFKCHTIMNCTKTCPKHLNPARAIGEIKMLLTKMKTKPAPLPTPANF

On to `O=C(Nc1cccc(-c2ccccc2)c1)c1ccccc1C(F)(F)F` [derivative 5], for which the half-maximal inhibitory concentration (IC50) against A. suum QFR (complex II) [1] stood at 24.5 nM; at porcine SQR (complex II) (setting [3]), 8610 nM.
Regarding `O=C(NCc1ccc(Cl)cc1Cl)c1ccccc1C(F)(F)F` [NN28], on A. suum QFR (complex II) [1], the IC50 stood at 28 nM. Besides, the “IC10 against porcine SQR” value against porcine SQR (complex II) (porcine complex II, SQR assay) is > 90000 nM.
As for `COc1[nH]c(=O)c(C(=O)[C@@H](C)C[C@H](C)[C@@H](Cl)CCl)c(O)c1OC` [Atpenin A5], the 50% inhibitory concentration (IC50) is 3.6 nM in the assay with bovine SQR and 12 nM at A. suum QFR (complex II) [2].
For the compound `CC(C)Oc1cccc(NC(=O)c2ccccc2I)c1` [derivative 1], the results for the IC50 on A. suum QFR (complex II) [1] and at porcine SQR (complex II) (setting [3]) were 72.3 nM and 6430 nM, respectively.
Turning to `CC(C)(C)c1ccc(CNC(=O)c2ccccc2C(F)(F)F)cc1` [NN23], the results for the IC50 against A. suum QFR (complex II) [1] and on porcine SQR (complex II) (setting [3]) were 5.5 nM and 111000 nM, respectively. The “selectivity index (IC50 porcine SQR / IC50 A. suum QFR)” value on A. suum QFR (complex II) [1] (A. suum QFR versus porcine SQR) was “about 20,000 folds”.
As for `CC(C)Oc1cccc(NC(=O)c2ccccc2C(F)(F)F)c1` [flutolanil, N-[3-(isopropyloxy)phenyl]-2-(trifluoromethyl)benzamide, reference compound], the IC50 at A. suum QFR (complex II) [1] is 58.1 nM; against A. suum QFR (complex II) [1] (IC50 (QFR), A. suum complex II, SQR assay, 298 K, pH 7.4) it was 58 nM; against porcine SQR (complex II) it was 45900 nM.
For the compound `CN(C)Cc1cccc(NC(=O)c2ccccc2C(F)(F)F)c1` [derivative 3], the IC50 turned out to be 3420 nM against A. suum QFR (complex II) [1] and 256000 nM at porcine SQR (complex II) (setting [3]). In addition, the “increase of IC50 for A. suum QFR relative to flutolanil” value on A. suum QFR (complex II) [1] amounted to 59 fold. In addition, at porcine SQR (complex II) (versus flutolanil), the “increase of IC50 for porcine SQR relative to flutolanil” value is listed as 6 fold.
`O=C(Nc1cccc(Oc2ccccc2)c1)c1ccccc1C(F)(F)F` [derivative 4]: the figures for the IC50 against A. suum QFR (complex II) [1] and at porcine SQR (complex II) (setting [3]) were 79.4 nM and 16200 nM, respectively.
On the same counts, the results for `Cc1ccccc1C(=O)Nc1cccc(OC(C)C)c1` [derivative 2] are 515 nM and 90000 nM.
On to `O=C(Nc1cccc(Oc2c(F)c(F)c(F)c(F)c2F)c1)c1ccccc1C(F)(F)F` [derivative 6], for which the concentration for half-maximal inhibition (IC50) against A. suum QFR (complex II) [1] was 330 nM; on porcine SQR (complex II) (setting [3]), 236000 nM.
